# Results reported in patent publication US20230312577A1, “DUAL KINASE-BROMODOMAIN INHIBITORS” (MONASH UNIVERSITY, priority 2020, published 2023).
# Tested on: Eμ-Myc lymphoma cells
# Test: In vivo tumour burden from a single dose, Eμ-Myc lymphoma
# Parameters: species or system mouse
# Experimental: B6.SJL-PtprcPepc/BoyJ (B6.CD45.1) mice were inoculated via tail vein injection with 5×10^5 Eμ-Myc lymphoma cells and left untreated for 12-14 days. A single injection of Cpd 010 at 35-45 mg/kg, or vehicle control (30% HPBCD) was administered. Half of the mice (n=6) were harvested 6 h post injection while the other half (n=6) were harvested 16 h later. Assessment of tumour burden was carried out on single cell suspension of harvested lymph nodes, spleen and blood by flow cytometry using antibodies as above. PD-L1 MFI was assessed by flow cytometry in harvested LNs using anti-mouse PD-L1-PE (ThermoFisher Scientific, clone MIH5) or isotype control antibodies (Mouse IgG2b PE, #559529). Harvested LNs were also washed in PBS and lysates were collected using Laemmli Buffer (AlfaAeser #J61337). They were processed as per our Western Blot protocol (see above) before they were probed for primary pAKT antibodies. Spleen size and weights were also measured between the treatment groups.
smiles,measurement,setting,value
"CC(=O)N1c2ccc(-c3ccc(CNC(=O)c4cn5cc(-c6cnc(N)nc6)nc(N6CCOCC6)c5n4)cc3)cc2CC[C@@H]1C [Cpd 010, (S)-N-(4-(1-acetyl-2-methyl-1,2,3,4-tetrahydroquinolin-6-yl)benzyl)-6-(2-aminopyrimidin-5-yl)-8-morpholinoimidazo[1,2-a]pyrazine-2-carboxamide]",size of the spleen,single dose 35-45 mg/kg,significantly reduced
same,number of tumour cells in peripheral blood and harvested spleen,"single injection 35-45 mg/kg, 16 h",marked reduction in number of tumour cells in peripheral blood and harvested spleen
